# Experimental data as given in article PMC7436013, “Design, Synthesis, and Biological Investigation of Novel Classes of 3-Carene-Derived Potent Inhibitors of TDP1” (Molecules, 2020).
# “Also recorded” adds a separate entry of the source.
# How the values were obtained:
# TDP1 [1] = molecular target: T1, TDP1 (Homo sapiens, UniProt Q9NUW8); test: Real-time detection of TDP1 activity with fluorescent oligonucleotide biosensor; assay type: biochemical; conditions: for IC50: real-time fluorescent oligonucleotide biosensor, 1.5 nM TDP1, 50 nM substrate, read-out: IC50, TDP1 inhibition
# T1 construct: made in house; host or cells: Escherichia coli
# T1 sequence (Q9NUW8 whole entry): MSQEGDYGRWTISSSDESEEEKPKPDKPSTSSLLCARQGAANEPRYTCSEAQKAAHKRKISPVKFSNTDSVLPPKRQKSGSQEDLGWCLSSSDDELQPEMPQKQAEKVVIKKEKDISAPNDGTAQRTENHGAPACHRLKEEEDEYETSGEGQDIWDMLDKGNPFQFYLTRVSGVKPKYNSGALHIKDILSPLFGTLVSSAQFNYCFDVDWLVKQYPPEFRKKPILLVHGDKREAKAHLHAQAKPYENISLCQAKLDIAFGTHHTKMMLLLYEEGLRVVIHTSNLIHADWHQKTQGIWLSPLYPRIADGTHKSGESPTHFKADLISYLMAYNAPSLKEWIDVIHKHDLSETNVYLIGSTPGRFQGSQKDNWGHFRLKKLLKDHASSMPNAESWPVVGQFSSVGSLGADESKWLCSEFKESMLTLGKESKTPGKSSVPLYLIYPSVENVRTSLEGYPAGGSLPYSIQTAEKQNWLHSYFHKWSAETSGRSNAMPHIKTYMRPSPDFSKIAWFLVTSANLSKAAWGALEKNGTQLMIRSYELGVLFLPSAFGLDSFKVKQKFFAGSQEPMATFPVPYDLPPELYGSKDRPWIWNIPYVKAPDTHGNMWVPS
# Experimental: The compounds synthesized starting from (+)-3-carene 8 were tested for their TDP1 inhibitory properties by measuring their IC50 values using a real-time fluorescent oligonucleotide biosensor [38].
# A fluorophore quencher-coupled oligonucleotide biosensor was used for TDP1 enzyme activity real-time fluorescence detection. […] Recombinant protein TDP1 was expressed in Escherichia coli (pET 16B plasmid containing TDP1 cDNA was provided by Dr. K.W. Caldecott, University of Sussex, United Kingdom) and isolated as described by Lebedeva et al.. The reaction mixture contained TDP1 reaction buffer (50 mM Tris-HCl, 50 mM NaCl, 7 mM β-mercaptoethanol), 50 nM oligonucleotide substrate, varied concentrations of the tested compounds, and 1.5 nM purified TDP1 in a final volume of 200 μL.
# The TDP1 reaction mixture was incubated at rt in a POLARstar OPTIMA fluorimeter (BMG LABTECH, GmbH). Fluorescence intensity was measured every 1 min (Ex485/Em520 nm). The efficiency of TDP1 inhibition was evaluated by comparing the rate of increase in the fluorescence of the biosensor in the presence of the compound to that of DMSO (1.5%) control wells. IC50 values were determined using an 11-point concentration–response curve. The data were imported into MARS Data Analysis 2.0 program (BMG LABTECH) and the slope during the linear phase was calculated. The IC50 measurements were carried out in at least three independent experiments.
# HEK293FT TDP1−/− cells [2] = test: Colorimetric cytotoxicity test (MTT/EZ4U), HEK293FT TDP1-/-; assay type: cell-based, human; conditions: for IC50: Homo sapiens, HEK293FT, 72 h, read-out: Tpc IC50, colorimetric test; for effect of TDP1 inhibitor in conjunction with Tpc on cell growth: Tpc 30 nM
# Experimental: (§1) We analyzed, using a colorimetric test, the relative amount of viable cells after treating HEK293FT WT and TDP1-deficient (TDP1−/−) cells with increasing concentrations of Tpc for 72 h. […] Next, we studied WT and mutant cells’ live activity after Tpc treatment on the xCELLigence System (ACEA Biosciences, USA) by the impedance-based assay. HEK293FT TDP1−/− cells were more sensitive to Tpc (Figure 2B). After Tpc administration to the cells, an […] of the slope was seen, characterizing the velocity of the cell growth with Tpc as compared to the control both for WT (red columns) and mutant cells (green columns) (Figure S1, Supplementary Materials). […] The sharper decrease of the slope for the mutant cells than for the WT (compare the histogram for the 0 and 0.05 μM Tpc concentration, ~1.5 times for WT cells (red) and ~6 times for TDP1−/−cells (green)) also characterizes the higher sensitivity of the mutant to the TOP1 inhibitor. […] There was a three-fold difference for these IC50 values, which is nearly the same as for the colorimetric assay.
# (§2) The cytotoxicity of the compounds was examined against human cell lines HEK293FT (human embryonic kidney), WT and TDP1-deficient (TDP1-/-), HCT116 (human colon cancer), IMR-32 (human neuroblastoma cell line), HeLa (cervical cancer), and Krebs-2 carcinoma ascites using MTT and EZ4U colorimetric tests or an xCELLigence DP Real-Time Cell Analyzer (ACEA Biosciences, San Diego, CA, USA) for HEK293FT in cells exposed to the compounds. The cells were grown in DMEM/F12 or IMDM (for IMR-32 and Krebs-2) medium (Gibco), with 1x GlutaMAX (Gibco), 50 IU/mL penicillin, 50 μg/mL streptomycin (MP Biomedicals, Irvine, CA, USA) and in the presence of 10% fetal bovine serum (Biolot). The cells (~20,000 cells per well) were incubated for 24 h at 37 °C in 5% CO2, and then treated with the tested compounds (the volume of the added reagents was 1/100 of the total volume of the culture medium, the amount of DMSO was 1% of the final volume as indicated). Control cells were grown in the presence of 1% DMSO where indicated. After 72 h of cell incubation, the relative amount of living cells was determined using a colorimetric test of the amount of formazan converted from 3-(4,5-dimethylthiazol-2-yl)-2,5-diphenyl-2H-tetrazolium bromide (MTT test) or EZ4U Cell Proliferation and Cytotoxicity Assay (Biomedica, Austria), as per the manufacturer’s protocols. The real-time detection of the living cells was done by an xCELLigence DP Real-Time Cell Analyzer (ACEA Biosciences). The measurements were carried out in three parallel experiments.
# HEK293FT TDP1−/− cells [3] = test: Impedance-based real-time assay (xCELLigence), HEK293FT TDP1-/-; assay type: cell-based, human
# Experimental: as §1, with “colorimetric assay. […]” for “colorimetric assay.”
# [4] = tested on: IMR-32 (human neuroblastoma cell line); test: Colorimetric cytotoxicity test, IMR-32; assay type: cell-based; conditions: for dose-dependent action of Tpc in the presence of inhibitor: IMR-32, Figure 4C; for dose-dependent action of inhibitor in the presence of Tpc on cell growth: IMR-32, Tpc 8 nM, Figure 4B
# Experimental: as §2
# [5] = tested on: HCT116 (human colon cancer); test: Colorimetric cytotoxicity test, HCT116; assay type: cell-based; conditions: for intrinsic cytotoxicity: HCT116; for dose-dependent action of inhibitor in the presence of Tpc on cell growth: HCT, Tpc 900 nM, Figure 4B
# Experimental: as §2
# HEK293FT WT cells [6] = test: Impedance-based real-time assay (xCELLigence), HEK293FT WT; assay type: cell-based, human
# Experimental: as §1, with “colorimetric assay. […]” for “colorimetric assay.”
# HEK293FT WT cells [7] = test: Colorimetric cytotoxicity test (MTT/EZ4U), HEK293FT WT; assay type: cell-based, human; conditions: for IC50: Homo sapiens, HEK293FT, 72 h, read-out: Tpc IC50, colorimetric test; for effect of TDP1 inhibitor in conjunction with Tpc on cell growth: Tpc 200 nM
# Experimental: as §1, §2
# [8] = tested on: HeLa (cervical carcinoma); test: Colorimetric cytotoxicity test, HeLa; assay type: cell-based, human; conditions: for enhancement of the Tpc cytotoxicity: data not shown
# Experimental: as §2
# Krebs-2 carcinoma cells = test: Colorimetric cytotoxicity test, Krebs-2; assay type: cell-based
# Experimental: as §2, with “The real-time detection of the living cells was done by an xCELLigence DP Real-Time Cell Analyzer (ACEA Biosciences). The measurements were carried out in three parallel experiments.” left out
# [9] = tested on: lung adenocarcinoma cells A549; set-up: method as in PMID 30523770, doi:10.3390/app9132767; conditions: ref [18],[20]; cited from earlier work
# TDP1 [10] = tested on: TDP1; set-up: method as in PMID 31619021, PMID 30396105, PMID 30142660, PMID 29562592, PMID 27658793; conditions: Figure 1; ref [10]-[13],[16]-[18],[20],[22]; read-out: IC50 of known TDP1 inhibitors; cited from earlier work
# [11] = Homo sapiens, in H2O, read-out: Tpc IC50, impedance-based assay
smiles,measurement,setting,value
C/C=C/C1OC(C)(C)[C@@H]2CCC(C)=C[C@H]12 (some centres unmarked) [11c],activity against TDP1 (in words),TDP1 [1],do not exhibit activity
same,IC50,TDP1 [1],> 20 µM
COc1cc(C2OC(C)(C)C3CC=C(C)C2C3)ccc1O (centres unmarked) [12a],activity against TDP1 (in words),TDP1 [1],do not exhibit activity
same,IC50,TDP1 [1],> 20 µM
"CC1=CC[C@@H]2C[C@H]1[C@H](c1cccs1)OC2(C)C [12d, (1R,4R,5R)-2,2,6-trimethyl-4-(thiophen-2-yl)-3-oxabicyclo[3.3.1]non-6-ene]",IC50,TDP1 [1],3.35 ± 1.06 µM
"CC[C@@]1(O)C(=O)OCc2c1cc1n(c2=O)Cc2cc3c(CN(C)C)c(O)ccc3nc2-1 [Tpc, topotecan, reference compound]",IC50,HEK293FT TDP1−/− cells [2]; in DMSO,0.03 µM
same,IC50,HEK293FT TDP1−/− cells [2]; in H2O,0.15 µM
same,IC50,HEK293FT TDP1−/− cells [3]; [11],0.02 µM
same,"decrease of the slope (velocity of cell growth), 0 vs 0.05 μM Tpc",HEK293FT TDP1−/− cells [3]; ~70 h after Tpc treatment,~ 6 times
same,IC50,"[4]; Homo sapiens, IMR-32, read-out: Tpc IC50 (concentration close to IC50)",~0.008 µM
same,IC50,"[5]; Homo sapiens, HCT-116, read-out: Tpc IC50 (concentration close to IC50)",~0.9 µM
same,IC50,HEK293FT WT cells [6]; [11],0.06 µM
same,"decrease of the slope (velocity of cell growth), 0 vs 0.05 μM Tpc",HEK293FT WT cells [6]; ~70 h after Tpc treatment,~ 1.5 times
same,IC50,HEK293FT WT cells [7]; in DMSO,0.2 µM
same,IC50,HEK293FT WT cells [7]; in H2O,0.25 µM
"CC1=CC[C@@H]2C[C@H]1[C@H](c1cc(Br)cs1)OC2(C)C [12g, (1R,4R,5R)-2,2,6-trimethyl-4-(4-bromothiophen-2-yl)-3-oxabicyclo[3.3.1]non-6-ene]",IC50,TDP1 [1],0.65 ± 0.22 µM
"CC1=CC[C@@H]2C[C@H]1[C@H](c1ccc([N+](=O)[O-])o1)OC2(C)C [12j, (1R,4R,5R)-2,2,6-trimethyl-4-(5-nitrofuran-2-yl)-3-oxabicyclo[3.3.1]non-6-ene]",activity against TDP1 (in words),TDP1 [1],did not exhibit high activity
same,IC50,TDP1 [1],28 ± 10 µM
"CC1=CC[C@@H]2C[C@H]1[C@H](c1ccsc1)OC2(C)C [12k, (1R,4R,5R)-2,2,6-trimethyl-4-(thiophen-3-yl)-3-oxabicyclo[3.3.1]non-6-ene]",effect of TDP1 inhibitor in conjunction with Tpc on cell growth,HEK293FT TDP1−/− cells [2],not found; also recorded: no effect
same,IC50,TDP1 [1],1.2 ± 0.14 µM
same,intrinsic cytotoxicity,[8],low
same,enhancement of the Tpc cytotoxicity,[8],no enhancement
same,intrinsic cytotoxicity,[4]; IMR-32,low
same,dose-dependent action of Tpc in the presence of inhibitor,[4],synergistic action
same,dose-dependent action of inhibitor in the presence of Tpc on cell growth,[4],suppressed cell growth
same,intrinsic cytotoxicity,[5],low
same,dose-dependent action of inhibitor in the presence of Tpc on cell growth,[5],no effect
same,intrinsic cytotoxicity,Krebs-2 carcinoma cells,low
same,effect of TDP1 inhibitor in conjunction with Tpc on cell growth,HEK293FT WT cells [7],cell growth suppression; also recorded: synergistic effect; also recorded: Suppressed cell growth
CC(C)CCCC(C)CCOC(=O)C12CC3CC(CC(C3)C1)C2 (centres unmarked) [compound 6],synergism in combination with Tpc,[9],strong synergism
same,IC50,TDP1 [10],0.92 µM
"CC1=CC[C@@H]2C[C@H]1[C@H](c1sccc1C)OC2(C)C [12e, (1R,4R,5R)-2,2,6-trimethyl-4-(3-methylthiophen-2-yl)-3-oxabicyclo[3.3.1]non-6-ene]",IC50,TDP1 [1],2.25 ± 0.63 µM
CC(C)CCCC(C)CCNC(=S)C12CC3CC(CC(C3)C1)C2 (centres unmarked) [compound 7],synergism in combination with Tpc,[9],strong synergism
same,IC50,TDP1 [10],3.3 µM
"CC1=C[C@@H]2[C@@H](c3sccc3C)OC(C)(C)[C@@H]2CC1 [11e, (1S,3aR,7aS)-3,3,6-trimethyl-1-(3-methylthiophen-2-yl)-1,3,3a,4,5,7a-hexahydroisobenzofuran]",IC50,TDP1 [1],3.6 ± 1.7 µM
"CC1=C[C@@H]2[C@@H](c3cccs3)OC(C)(C)[C@@H]2CC1 [11d, (1S,3aR,7aS)-3,3,6-trimethyl-1-(thiophen-2-yl)-1,3,3a,4,5,7a-hexahydroisobenzofuran]",IC50,TDP1 [1],4.85 ± 1.06 µM
"CC1=C[C@@H]2[C@@H](c3ccc(C)s3)OC(C)(C)[C@@H]2CC1 [11f, (1S,3aR,7aS)-3,3,6-trimethyl-1-(5-methylthiophen-2-yl)-1,3,3a,4,5,7a-hexahydroisobenzofuran]",IC50,TDP1 [1],4.7 ± 2 µM
"CC1=CC[C@@H]2C[C@H]1[C@H](c1ccc(Br)s1)OC2(C)C [12h, (1R,4R,5R)-2,2,6-trimethyl-4-(5-bromothiophen-2-yl)-3-oxabicyclo[3.3.1]non-6-ene]",IC50,TDP1 [1],1.75 ± 0.78 µM
"CC1=C[C@@H]2[C@@H](c3ccc(Br)s3)OC(C)(C)[C@@H]2CC1 [11h, (1S,3aR,7aS)-3,3,6-trimethyl-1-(5-bromothiophen-2-yl)-1,3,3a,4,5,7a-hexahydroisobenzofuran]",effect of TDP1 inhibitor in conjunction with Tpc on cell growth,HEK293FT TDP1−/− cells [2],not found; also recorded: no effect
same,IC50,TDP1 [1],0.75 ± 0.07 µM
same,intrinsic cytotoxicity,[8],low
same,enhancement of the Tpc cytotoxicity,[8],no enhancement
same,intrinsic cytotoxicity,[4]; IMR-32,low
same,dose-dependent action of Tpc in the presence of inhibitor,[4],synergistic action
same,dose-dependent action of inhibitor in the presence of Tpc on cell growth,[4],suppressed cell growth
same,intrinsic cytotoxicity,[5],low
same,dose-dependent action of Tpc in the presence of inhibitor,"[5]; HCT116, Figure 4C",enhanced Tpc’s potency
same,dose-dependent action of inhibitor in the presence of Tpc on cell growth,[5],no effect
same,intrinsic cytotoxicity,Krebs-2 carcinoma cells,low
same,effect of TDP1 inhibitor in conjunction with Tpc on cell growth,HEK293FT WT cells [7],cell growth suppression; also recorded: synergistic effect; also recorded: Suppressed cell growth
"CC1=C[C@@H]2[C@@H](c3ccsc3)OC(C)(C)[C@@H]2CC1 [11k, (1S(R),3aR,7aS)-3,3,6-trimethyl-1-(thiophen-3-yl)-1,3,3a,4,5,7a-hexahydroisobenzofuran]",IC50,TDP1 [1],1.6 ± 0.56 µM
C[C@@H]1CC[C@@H]2[C@@H](C1)O[C@@H](c1ccc(NC(=O)C34CC5CC(CC(C5)C3)C4)s1)C[C@]2(C)O [compound 3],IC50,TDP1 [10],1.2 µM
CC(=O)C[C@H]1CC2C(CCC3C[C@H](OC(C)=O)CC[C@@]32C)C2CC[C@H]([C@H](C)CCC(=O)NC34CC5CC(CC(C5)C3)C4)[C@]21C (some centres unmarked) [compound 2],IC50,TDP1 [10],0.47 µM
